Assay results reported in ChEMBL document CHEMBL1130699, “Coprophilin: an anticoccidial agent produced by a dung inhabiting fungus” (1998).
Converted amounts (≈) assume the structure as drawn. The source made the active and inactive calls. The calls are words filed in the database; no cut-off is given here.

What was measured:
MDBK441 [1] = assay: Compound was tested for inhibition of the growth of Eimeria tenella in MDBK 441 cell line up to concentration 25 uM; no inhibition; type: functional, cell-based; details: Bos taurus
MDBK441 [2] = assay: Compound was tested for inhibition of the growth of Eimeria tenella in MDBK 441 cell line; type: functional; details: Bos taurus

SMILES	MIC (MDBK441 [1])	MIC (MDBK441 [2])
COC(=O)CCCC[C@@H]1[C@H]2[C@H](C)[C@@H](O)C(C)C[C@]2(C)CC[C@@H]1C (stereo partly drawn)	inactive	
CC1C[C@]2(C)C=C[C@H](C)[C@H](/C=C/C=C/C(=O)O)[C@H]2[C@H](C)[C@H]1O (stereo partly drawn)	inactive	
COC(=O)/C=C/C=C/[C@@H]1[C@H]2[C@H](C)[C@@H](O)C(C)C[C@]2(C)C=C[C@@H]1C (stereo partly drawn)		1.5 µM (≈ 0.478 µg/mL)
